pIC50: −log10 of the molar value.
The molecules below were run against T1, human PPARα (Homo sapiens, UniProt Q07869) (assay: Human PPARα Reporter Assay (luciferase, Indigo Biosciences)). Settings: antagonism; luciferase reporter cells, overnight incubation; read-out: PPARα IC50.
T1 construct: host or cells: proprietary non-human mammalian cells
T1 sequence (Q07869 1-468): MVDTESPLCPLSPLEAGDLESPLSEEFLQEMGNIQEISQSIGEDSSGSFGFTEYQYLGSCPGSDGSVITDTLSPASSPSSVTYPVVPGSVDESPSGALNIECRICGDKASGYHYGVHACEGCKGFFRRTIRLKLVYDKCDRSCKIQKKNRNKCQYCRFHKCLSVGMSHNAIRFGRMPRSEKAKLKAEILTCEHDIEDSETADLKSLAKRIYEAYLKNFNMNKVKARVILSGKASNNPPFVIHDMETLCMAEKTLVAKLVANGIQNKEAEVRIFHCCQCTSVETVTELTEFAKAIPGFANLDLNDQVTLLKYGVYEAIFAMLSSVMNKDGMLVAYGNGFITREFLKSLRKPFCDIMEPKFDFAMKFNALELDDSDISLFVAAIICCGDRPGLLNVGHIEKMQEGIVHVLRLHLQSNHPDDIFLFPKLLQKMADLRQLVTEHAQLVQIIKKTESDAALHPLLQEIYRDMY
Format: cell-based
Description: Human PPARα Reporter Assay
The screening of test compounds for agonist or antagonist activities against human PPARα receptors was performed using a commercial kit, Human PPARα Reporter Assay System (Indigo Biosciences, Cat. #IB00111).
This nuclear receptor assay system utilizes proprietary non-human mammalian cells engineered to provide constitutive, high-level expression of Human PPARα. Because these cells incorporate a PPARα-responsive luciferase reporter gene, quantifying expressed luciferase activity provides a sensitive surrogate measure of PPARα activity in the treated cells. The primary application of this reporter assay system is in the screening of test samples to quantify any functional activity, either agonist or antagonist, that they may exert against human PPARα.
Briefly, reporter cells are dispensed into wells of the assay plate and then immediately dosed with test compounds. Following an overnight incubation, the treatment media is discarded and Luciferase Detection Reagent (LDR) is added. The intensity of light emission from the ensuing luciferase reaction provides a sensitive measure that is directly proportional to the relative level of PPARα activation in the reporter cells.

pIC50	Compound
6.92	CC(C)(Oc1ccc(CCCC2=NN(Cc3ccc(C(F)(F)F)c(F)c3)C(=O)C2(C)C)cc1)C(=O)O [Example 18, 2-(4-(3-(1-(3-fluoro-4-(trifluoromethyl)benzyl)-4,4-dimethyl-5-oxo-4,5-dihydro-1H-pyrazol-3-yl)propyl)phenoxy)-2-methylpropanoic acid]
8.42	CC(C)(Oc1ccc(CCCC2=NN(c3ccc(C(F)(F)F)cc3)C(=O)C2(C)C)cc1)C(=O)O [Example 19, 2-(4-(3-(4,4-dimethyl-5-oxo-1-(4-(trifluoromethyl)phenyl)-4,5-dihydro-1H-pyrazol-3-yl)propyl)phenoxy)-2-methylpropanoic acid]
7.72	CC(C)(Oc1ccc(CCCC2=NN(c3cccc(C(F)(F)F)c3)C(=O)C2(C)C)cc1)C(=O)O [Example 20, 2-(4-(3-(4,4-dimethyl-5-oxo-1-(3-(trifluoromethyl)phenyl)-4,5-dihydro-1H-pyrazol-3-yl)propyl)phenoxy)-2-methylpropanoic acid]
7.46	CC(C)(Oc1ccc(CCCC2=NN(c3ccc(C(F)(F)F)cn3)C(=O)C2(C)C)cc1)C(=O)O [Example 21, 2-(4-(3-(4,4-dimethyl-5-oxo-1-(5-(trifluoromethyl)pyridin-2-yl)-4,5-dihydro-1H-pyrazol-3-yl)propyl)phenoxy)-2-methylpropanoic acid]
9.05	CC(C)(Oc1ccc(CCCC2=NN(c3ccc(C(F)(F)F)cc3)C(=O)C2(C)C)cc1)C(=O)NS(=O)(=O)c1ccccc1 [Example 22, 2-(4-(3-(4,4-dimethyl-5-oxo-1-(4-(trifluoromethyl)phenyl)-4,5-dihydro-1H-pyrazol-3-yl)propyl)phenoxy)-2-methyl-N-(phenylsulfonyl)propanamide]
7.89	CC(C)(Oc1ccc(CCCC2=NN(Cc3ccc(C(C)(C)C)cc3)C(=O)C23CCCC3)cc1)C(=O)O [Example 23, 2-(4-(3-(3-(4-(tert-butyl)benzyl)-4-oxo-2,3-diazaspiro[4,4]non-1-en-1-yl)propyl)phenoxy)-2-methylpropanoic acid]
8.85	CC(C)(Oc1ccc(CCCC2=NN(c3ccc(C(F)(F)F)cc3)C(=O)C23CCCC3)cc1)C(=O)O [Example 24, 2-methyl-2-(4-(3-(4-oxo-3-(4-(trifluoromethyl)phenyl)-2,3-diazaspiro[4,4]non-1-en-1-yl)propyl)phenoxy)propanoic acid]
9.00	CC(C)(Oc1ccc(CCCC2=NN(c3ccc(C(F)(F)F)cc3)C(=O)C23CCCC3)cc1)C(=O)NS(=O)(=O)c1ccccc1 [Example 25, 2-methyl-2-(4-(3-(4-oxo-3-(4-(trifluoromethyl)phenyl)-2,3-diazaspiro[4,4]non-1-en-1-yl)propyl)phenoxy)-N-(phenylsulfonyl)propanamide]
6.96	CC(C)(Oc1ccc(CCCC2=NN(c3ccc(C(F)(F)F)cc3)C(=O)C23CCCC3)cc1)C(=O)NC1CC1 [Example 26, N-cyclopropyl-2-methyl-2-(4-(3-(4-oxo-3-(4-(trifluoromethyl)phenyl)-2,3-diazaspiro[4,4]non-1-en-1-yl)propyl)phenoxy)propanamide]
6.39	CC(C)(Oc1ccc(CCCC2=NN(c3ccc(C(F)(F)F)cc3)C(=O)C23CCCC3)cc1)C(=O)NCC(F)(F)F [Example 27, 2-methyl-2-(4-(3-(4-oxo-3-(4-(trifluoromethyl)phenyl)-2,3-diazaspiro[4,4]non-1-en-1-yl)propyl)phenoxy)-N-(2,2,2-trifluoroethyl)propanamide]
9.01	CC(C)(Oc1ccc(CCCC2=NN(c3ccc(OC(F)(F)F)cc3)C(=O)C23CCCC3)cc1)C(=O)O [Example 28, 2-methyl-2-(4-(3-(4-oxo-3-(4-(trifluoromethoxy)phenyl)-2,3-diazaspiro[4,4]non-1-en-1-yl)propyl)phenoxy)propanoic acid]
7.16	CC(C)(Oc1ccc(CCCC2=NN(c3ccc(OC(F)(F)F)cc3)C(=O)C23CCCC3)cc1)C(=O)NC1CC1 [Example 29, N-cyclopropyl-2-methyl-2-(4-(3-(4-oxo-3-(4-(trifluoromethoxy)phenyl)-2,3-diazaspiro[4,4]non-1-en-1-yl)propyl)phenoxy)propanamide]
6.15	CC(C)(Oc1ccc(CCCC2=NN(c3ccc(OC(F)(F)F)cc3)C(=O)C23CCCC3)cc1)C(=O)NCC(F)(F)F [Example 30, 2-methyl-2-(4-(3-(4-oxo-3-(4-(trifluoromethoxy)phenyl)-2,3-diazaspiro[4,4]non-1-en-1-yl)propyl)phenoxy)-N-(2,2,2-trifluoroethyl)propanamide]
8.59	Cc1ccc(N2N=C(CCCc3ccc(OC(C)(C)C(=O)O)cc3)C3(CCCC3)C2=O)cc1C [Example 31, 2-(4-(3-(3-(3,4-dimethylphenyl)-4-oxo-2,3-diazaspiro[4,4]non-1-en-1-yl)propyl)phenoxy)-2-methylpropanoic acid]
6.60	Cc1ccc(N2N=C(CCCc3ccc(OC(C)(C)C(=O)NC4CC4)cc3)C3(CCCC3)C2=O)cc1C [Example 32, N-cyclopropyl-2-(4-(3-(3-(3,4-dimethylphenyl)-4-oxo-2,3-diazaspiro[4,4]non-1-en-1-yl)propyl)phenoxy)-2-methylpropanamide]
6.30	Cc1ccc(N2N=C(CCCc3ccc(OC(C)(C)C(=O)NCC(F)(F)F)cc3)C3(CCCC3)C2=O)cc1C [Example 33, 2-(4-(3-(3-(3,4-dimethylphenyl)-4-oxo-2,3-diazaspiro[4,4]non-1-en-1-yl)propyl)phenoxy)-2-methyl-N-(2,2,2-trifluoroethyl)propanamide]
6.02	CC(C)(Oc1ccc(CCCC2=NN(Cc3ccc(C(F)(F)F)cc3)C(=O)C23CCCC3)cc1)C(=O)O [Example 34, 2-methyl-2-(4-(3-(4-oxo-3-(4-(trifluoromethyl)benzyl)-2,3-diazaspiro[4,4]non-1-en-1-yl)propyl)phenoxy)propanoic acid]
7.49	CC(C)(Oc1ccc(CCCC2=NN(c3cccc(C(F)(F)F)c3)C(=O)C23CCCC3)cc1)C(=O)O [Example 35, 2-methyl-2-(4-(3-(4-oxo-3-(3-(trifluoromethyl)phenyl)-2,3-diazaspiro[4,4]non-1-en-1-yl)propyl)phenoxy)propanoic acid]
7.57	CC(C)(Oc1ccc(CCCC2=NN(c3cccc(OC(F)(F)F)c3)C(=O)C23CCCC3)cc1)C(=O)O [Example 36, 2-methyl-2-(4-(3-(4-oxo-3-(3-(trifluoromethoxy)phenyl)-2,3-diazaspiro[4,4]non-1-en-1-yl)propyl)phenoxy)propanoic acid]
8.55	CC(C)(Oc1ccc(CCCC2=NN(c3ccc4ccccc4c3)C(=O)C23CCCC3)cc1)C(=O)O [Example 37, 2-methyl-2-(4-(3-(3-(naphthalen-2-yl)-4-oxo-2,3-diazaspiro[4,4]non-1-en-1-yl)propyl)phenoxy)propanoic acid]
7.60	CC(C)(Oc1ccc(CCCC2=NN(c3cccc(-c4ccccc4)c3)C(=O)C23CCCC3)cc1)C(=O)O [Example 38, 2-(4-(3-(3-([1,1′-biphenyl]-3-yl)-4-oxo-2,3-diazaspiro[4,4]non-1-en-1-yl)propyl)phenoxy)-2-methylpropanoic acid]
8.51	Cc1ccc(N2N=C(CCCc3ccc(OC(C)(C)C(=O)O)cc3)C3(CCCC3)C2=O)cc1C(F)(F)F [Example 39, 2-methyl-2-(4-(3-(3-(4-methyl-3-(trifluoromethyl)phenyl)-4-oxo-2,3-diazaspiro[4,4]non-1-en-1-yl)propyl)phenoxy)propanoic acid]
7.70	CC(C)(Oc1ccc(CCCC2=NN(c3cccc(C(C)(C)C)c3)C(=O)C23CCCC3)cc1)C(=O)O [Example 40, 2-(4-(3-(3-(3-(tert-butyl)phenyl)-4-oxo-2,3-diazaspiro[4,4]non-1-en-1-yl)propyl)phenoxy)-2-methylpropanoic acid]
4.82	CCCC1(CCC)C(=O)N(c2ccc(C(F)(F)F)cc2)N=C1CCCc1ccc(OC(C)(C)C(=O)O)cc1 [Example 41, 2-methyl-2-(4-(3-(5-oxo-4,4-dipropyl-1-(4-(trifluoromethyl)phenyl)-4,5-dihydro-1H-pyrazol-3-yl)propyl)phenoxy)propanoic acid]
4.47	CCCC1(CCC)C(=O)N(c2cccc(C(F)(F)F)c2)N=C1CCCc1ccc(OC(C)(C)C(=O)O)cc1 [Example 42, 2-methyl-2-(4-(3-(5-oxo-4,4-dipropyl-1-(3-(trifluoromethyl)phenyl)-4,5-dihydro-1H-pyrazol-3-yl)propyl)phenoxy)propanoic acid]
5.92	CC1(C)C(=O)N(c2ccc(C(F)(F)F)cc2)N=C1CCCc1ccc(OC(C)(C)C(O)C(F)(F)F)cc1 (centres unmarked) [Example 43, 4,4-dimethyl-3-(3-(4-((4,4,4-trifluoro-3-hydroxy-2-methylbutan-2-yl)oxy)phenyl)propyl)-1-(4-(trifluoromethyl)phenyl)-1H-pyrazol-5(4H)-one]

Source: patent US9862708B2, “Pyrazolone compounds and uses thereof” (Tempest Therapeutics, Inc., priority 2014, dated 2018)
